Assay: Administration of pentasaccharide sodium salt in minipigs: iontophoresis vs passive, I.V. and subcutaneous; plasma antifactor Xa (Example 3)
Assay type: in vivo, minipig (YUCATAN strain)
Procedure: Administration in minipigs of pentasaccharide sodium salt by iontophoresis at a set current density
Specialists consider minipigs of the YUCATAN strain to be an excellent animal model for studying the administration in man of medicaments by iontophoresis. This is because the skin structure of this animal is very similar to that of human skin.
The following tests were carried out on the aforementioned minipig with the aim of comparing the administration of the sodium salt of the pentasaccharide used in the previous examples by iontophoresis with administration by subcutaneous or intravenous injection.
For these tests, pairs of adhesive electrode sets were formed, each pair having a donor electrode assembly formed by a reversible negative electrode (active electrode) in contact with a first reservoir element holding the pentasaccharide to be administered, and a passive electrode assembly formed by a positive electrode (back electrode) in contact with a second reservoir element (receptacle element) holding an indifferent electrolyte.
Referring to the figure, each electrode assembly included a disc 1 of polyethylene foam having an axial cylindrical recess 2, the said disc having an adhesive face 3 and a non-adhesive face 4, each of the said faces having the shape of an annular area with a width of two centimetres. The end 5 of the recess in the disc, on the non-adhesive face side, was closed off by an electrode 6 in the form of a silver disc chlorided on one of its faces, the said disc having a cross-sectional area of 20 cm^2. The chlorided face 7 of the electrode disc is turned towards the interior of the recess. […] The said support disc, having a diameter intermediate between that of the electrode 6 and the disc 1, was bonded onto the non-adhesive face of the latter disc. The recess 2 in the disc 1 was filled with a conductive hydrogel 11 forming the reservoir element. The adhesive face 3 of the disc 1 was coated with a pressure-sensitive adhesive designed to be applied to the skin, the said face 3 and the face 12 adjacent to the reservoir element 11 being initially covered with a peelable non-stick polyester protective film which was removed before application to the skin.
In the donor electrode assembly, the negative electrode (active electrode) of chlorided silver contained a quantity of silver chloride equivalent to 1.8 mAh/cm^2, thus allowing the electrode to sustain the quantity of current flowing through the electrodes over the duration of the iontophoretic treatment, namely 1.2 mAh/cm^2. The reservoir element associated with the negative electrode was filled over a thickness of 2 mm, i.e. a quantity of 4 g over the 20 cm^2 of electrode, with a hydrogel based on xanthan and carob extract having 3% of dry extract and containing 2% by weight of sodium salt of the pentasaccharide of formula (I) given above. The donor electrode assembly therefore contained 80 mg of pentasaccharide in a ratio of 4 mg/cm^2 for each of the animals which were treated.
In the passive electrode assembly, the positive electrode (back electrode) made of chlorided silver contained a quantity of silver chloride equivalent to 0.1 mAh/cm^2, and the reservoir element associated with this electrode consisted of the same hydrogel as the one present in the donor electrode assembly, but without pentasaccharide and instead holding 4% by weight of NaCl.
An electrical signal generator, connectable to the electrodes of each electrode assembly pair, made it possible to deliver between the said electrodes a pulsed electrical signal of controlled intensity, having a frequency of 25 kHz and a duty ratio equal to 50%. […]

[1] = test 3b: iontophoresis 0.20 mA/cm^2, 6 hours
[2] = test 3c: I.V. bolus 0.240 mg/kg
[3] = test 3d: subcutaneous 0.200 mg/kg

O=C(O)C1OC(OC2C(COS(=O)(=O)O)OC(OC3C(C(=O)O)OC(OC4C(COS(=O)(=O)O)OC(O)C(NS(=O)(=O)O)C4O)C(OS(=O)(=O)O)C3O)C(NS(=O)(=O)O)C2OS(=O)(=O)O)C(O)C(O)C1OC1OC(COS(=O)(=O)O)C(O)C(O)C1NS(=O)(=O)O (centres unmarked) [pentasaccharide]
Plasma level at 0 minutes (test 3a: passive, no current): 0 "Golden standard" units of ant | Plasma level at 5 minutes (test 3a: passive, no current): 0 "Golden standard" units of ant | Plasma level at 15 minutes (test 3a: passive, no current): 0 "Golden standard" units of ant | Plasma level at 30 minutes (test 3a: passive, no current): 0 "Golden standard" units of ant | Plasma level at 1 hour (test 3a: passive, no current): 0 "Golden standard" units of ant | Plasma level at 2 hours (test 3a: passive, no current): 0 "Golden standard" units of ant | Plasma level at 4 hours (test 3a: passive, no current): 0 "Golden standard" units of ant | Plasma level at 6 hours (test 3a: passive, no current): 0 "Golden standard" units of ant | Plasma level at 8 hours (test 3a: passive, no current): 0 "Golden standard" units of ant | Plasma level at 12 hours (test 3a: passive, no current): 0 "Golden standard" units of ant | Plasma level at 24 hours (test 3a: passive, no current): 0 "Golden standard" units of ant | Plasma level at 30 hours (test 3a: passive, no current): 0 "Golden standard" units of ant | plasma levels, expressed in terms of antifactor Xa, compared with intravenous or subcutaneous injections (test 3b: iontophoresis): higher plasma levels | Plasma level at 0 minutes [1]: 0 "Golden standard" units of ant | Plasma level at 15 minutes [1]: 0.06 ± 0.04 "Golden standard" units of ant | Plasma level at 30 minutes [1]: 0.15 ± 0.12 "Golden standard" units of ant | Plasma level at 1 hour [1]: 0.31 ± 0.15 "Golden standard" units of ant | Plasma level at 2 hours [1]: 0.45 ± 0.2 "Golden standard" units of ant | Plasma level at 4 hours [1]: 0.64 ± 0.18 "Golden standard" units of ant | Plasma level at 6 hours [1]: 0.74 ± 0.16 "Golden standard" units of ant | Plasma level at 8 hours [1]: 0.52 ± 0.13 "Golden standard" units of ant | Plasma level at 12 hours [1]: 0.4 ± 0.08 "Golden standard" units of ant | Plasma level at 24 hours [1]: 0.11 ± 0.03 "Golden standard" units of ant | Plasma level at 30 hours [1]: 0 "Golden standard" units of ant | bioavailability (active principle administered, normalized to quantity present in the electrodes) (test 3b, 80 mg engaged): about 9% | quantity of pentasaccharide administered per mAh (test 3b, for 1 mAh/cm^2): 292 μg/cm^2 | quantity of pentasaccharide administered per cm^2 (test 3b, for 1.2 mAh/cm^2): 350 μg/cm^2 | quantity of pentasaccharide actually administered by iontophoresis (test 3b, for the 20 cm^2, from areas under the curves): 7 ± 1.3 mg | Plasma level at 0 minutes [2]: 0 "Golden standard" units of ant | Plasma level at 5 minutes [2]: 1.04 ± 0.12 "Golden standard" units of ant | Plasma level at 15 minutes [2]: 0.91 ± 0.13 "Golden standard" units of ant | Plasma level at 30 minutes [2]: 0.65 ± 0.11 "Golden standard" units of ant | Plasma level at 1 hour [2]: 0.53 ± 0.10 "Golden standard" units of ant | Plasma level at 2 hours [2]: 0.30 ± 0.09 "Golden standard" units of ant | Plasma level at 4 hours [2]: 0.29 ± 0.08 "Golden standard" units of ant | Plasma level at 6 hours [2]: 0.22 ± 0.09 "Golden standard" units of ant | Plasma level at 8 hours [2]: 0.17 ± 0.06 "Golden standard" units of ant | Plasma level at 12 hours [2]: 0.07 ± 0.05 "Golden standard" units of ant | Plasma level at 24 hours [2]: 0 "Golden standard" units of ant | Plasma level at 30 hours [2]: 0 "Golden standard" units of ant | Plasma level at 0 minutes [3]: 0 "Golden standard" units of ant | Plasma level at 15 minutes [3]: 0.11 ± 0.04 "Golden standard" units of ant | Plasma level at 1 hour [3]: 0.17 ± 0.01 "Golden standard" units of ant | Plasma level at 2 hours [3]: 0.22 ± 0.04 "Golden standard" units of ant | Plasma level at 4 hours [3]: 0.26 ± 0.06 "Golden standard" units of ant | Plasma level at 6 hours [3]: 0.24 ± 0.01 "Golden standard" units of ant | Plasma level at 8 hours [3]: 0.15 ± 0.07 "Golden standard" units of ant | Plasma level at 12 hours [3]: 0.08 ± 0.03 "Golden standard" units of ant | Plasma level at 24 hours [3]: 0 "Golden standard" units of ant | Plasma level at 30 hours [3]: 0 "Golden standard" units of ant

Source: US5928185A, “Iontophoresis device for the transcutaneous delivery of an active principle such as an anionic oligosaccharide” (Sanofi, priority 1995, dated 1999)
